# Experiments:
# A1 receptor = target: T1, A1 receptor (Sus scrofa, UniProt I3LEN5); test: Competitive binding assay, pig striatum membrane prep, [3H]CPX; settings: [3H]CPX 2 nM, pig striatal membranes
# T1 sequence (I3LEN5 1-326): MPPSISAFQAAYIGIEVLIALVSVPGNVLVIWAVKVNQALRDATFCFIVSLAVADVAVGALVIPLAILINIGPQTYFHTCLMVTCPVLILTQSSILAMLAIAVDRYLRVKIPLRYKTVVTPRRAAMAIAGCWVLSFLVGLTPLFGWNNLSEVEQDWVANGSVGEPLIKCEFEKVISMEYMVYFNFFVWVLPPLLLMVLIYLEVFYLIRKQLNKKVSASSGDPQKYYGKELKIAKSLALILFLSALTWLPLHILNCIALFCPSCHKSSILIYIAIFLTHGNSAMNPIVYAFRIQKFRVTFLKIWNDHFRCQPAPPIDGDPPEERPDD
# Experimental: Competitive Binding Assay Pig striatum were prepared by homogenation in 50 mM Tris buffer (5× volume of tissue mass pH=7.4). After centrifilgation at 19,000 rpm for 25 minutes at 4° C., the supernatant was discarded, and the process was repeated twice. Compositions of this invention were assayed to determine their affinity for the A1 receptor in a pig striatum membrane prep or a DDT, membrane prep. Briefly, 0.2 mg of pig striatal membranes or DDT, cell membranes were treated with adenosine deaminase and 50 mM Tris buffer (pH=7.4) followed by mixing. To the pig membranes was added 2 μL of serially diluted DMSO stock solution of the compounds of this invention at concentrations ranging from 100 microM to 10 nM. The control received 2 microL of DMSO alone, then the antagonist [^3H] 8-cyclopentylxanthine (CPX) for pig striatum or the agonist [^3H] 2-chloro-6-cyclopentyladenosine (CCPA) for DDT, membranes in Tris buffer (50 mnM, pH of 7.4) was added to achieve a final concentration of 2 nM. After incubation at 23 C for 2 h, the solutions were filtered using a membrane harvester using multiple washing of the membranes (3×). The filter disks were counted in scintillation cocktail affording the amount of displacement of triated CPX or by the competitive binding compositions of this invention. […]
# A1 adenosine receptor = target: T2, A1 adenosine receptor (Cavia porcellus, UniProt P47745); test: Guinea pig isolated perfused heart: S-H interval, heart rate, atrial MAP
# T2 construct: The hearts were quickly removed and rinsed in ice-cold Krebs-Henseleit solution; from tissue; host or cells: guinea pig isolated perfused heart
# T2 sequence (P47745 1-326): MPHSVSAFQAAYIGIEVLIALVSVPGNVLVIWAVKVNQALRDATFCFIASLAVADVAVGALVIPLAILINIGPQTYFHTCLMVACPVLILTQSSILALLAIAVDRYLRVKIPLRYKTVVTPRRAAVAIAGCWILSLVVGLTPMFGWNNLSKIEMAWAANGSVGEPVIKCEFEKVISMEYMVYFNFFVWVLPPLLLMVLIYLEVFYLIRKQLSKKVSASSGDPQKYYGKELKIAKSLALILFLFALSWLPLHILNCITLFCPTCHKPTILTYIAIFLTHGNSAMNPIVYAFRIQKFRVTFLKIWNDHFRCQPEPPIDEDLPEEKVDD
# Experimental: (§1) Guinea pigs of either sex weighing 250-300 g were anesthetized with methoxyflurane and killed by cervical dislocation. The hearts were quickly removed and rinsed in ice-cold Krebs-Henseleit solution. The aorta was cannulated and the heart retrogradely perfused at a constant flow of 10 ml min^−1 with modified Krebs-Henseleit solution containing (mM): NaCL 117.9, KCl 4.8, CaCl2 2.5, MgSO4 1.18, KH2PO4 1.2, Na2EDTA 0.5, ascorbic acid 0.14, glucose 5.5, pyruvic acid (sodium salt) 2.0, and NaHCO3 25. The K—H solution was oxygenated with 95% oxygen and 5% CO2, pH 7.4, and temperature maintained at 36° C.
# Hearts were electrically paced at a cycle length of 290-300 ms (unless otherwise indicated) using a bipolar electrode placed on the right atrium or ventricle. The stimulator, an interval generator (Model 1830, WPI, Sarasota, Fla., U.S.A.) delivered stimuli through a stimulus isolation unit (Model 1880, WPI) as square wave pulses of 3 ms in duration and at least twice the threshold intensity. The stimulus-to-His bundle (S—H) interval was used as index of AV nodal conduction time and was measured on-line during constant atrial pacing from microcomputer with a DT-208 1A interface board (Axon Instruments, Burlingame, Calif., U.S.A.) In experiments to study the chronotropic effect (effect on heart rate) of A1 AdoR agonists, the hearts were allowed to beat spontaneously. An atrial electrogram was used to record the electrical activity of the atria and to measure the heart rate.
# Monophasic action potentials (MAP) were recorded using a pressure contact silver-silver chloride electrode (Langendorf Probe, EP Technologies, Inc., Sunnyvale, Calif., U.S.A.) placed on the surface of the left atrium. […] Signals were considered adequate if they were stable for at least 5 min and the amplitudes of the MAPs exceeded 10 mV. The data were digitized at 2 kHz by a DT-2801A digitizing board (Data Translation, Marlboro, Mass., U.S.A.) and stored using the Snapshot data acquisition program (Snapshot Storage Scope, HEM Data Corp., Southfield, Mich., U.S.A.) for later analysis. The duration of the atrial monophasic action potential was measured at 90% repolarization (MAPD90), using the Snapshot program. After completion of dissection and instrumentation, the hearts were allowed to equilibrate for 30 min before the experiments were begun. Whenever the baseline and post-intervention (washout) values differed by more than 15% the data were discarded. Approximately 60-70% of the experiments conformed with this criteria.
# A2A AdoR = target: T3, A2A AdoR (Cavia porcellus, UniProt P46616); test: Guinea pig isolated perfused heart: coronary vasodilation (coronary conductance); settings: guinea pig isolated perfused hearts; read-out: EC50 to cause coronary vasodilation
# T3 construct: from tissue; host or cells: guinea pig isolated perfused heart
# T3 sequence (P46616 whole entry, the tested form may be a part): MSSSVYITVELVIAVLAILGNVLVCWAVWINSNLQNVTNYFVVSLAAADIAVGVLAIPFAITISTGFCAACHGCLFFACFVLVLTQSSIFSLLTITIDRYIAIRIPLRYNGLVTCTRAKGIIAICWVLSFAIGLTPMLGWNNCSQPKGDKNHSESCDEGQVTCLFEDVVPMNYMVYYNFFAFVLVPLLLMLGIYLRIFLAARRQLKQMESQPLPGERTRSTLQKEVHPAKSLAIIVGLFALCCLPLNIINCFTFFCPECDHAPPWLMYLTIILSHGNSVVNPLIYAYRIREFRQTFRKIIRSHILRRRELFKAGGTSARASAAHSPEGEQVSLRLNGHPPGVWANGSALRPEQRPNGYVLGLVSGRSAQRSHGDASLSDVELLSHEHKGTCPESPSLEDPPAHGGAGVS
# Experimental: as §1
# Coronary perfusion pressure was measured using a pressure transducer that was connected to the aortic cannula via a T-connector. Coronary perfusion pressure (in mmHg) was monitored throughout an experiment and recorded on a 4-channel Gould strip-chart recorder (Gould RS3400, Cleveland, Ohio, U.S.A.). Coronary conductance (in ml min^−1 mmHg^−1) was calculated as the ratio of coronary perfusion rate (10 ml min^−1) and perfusion pressure (mmHg).
structure (smiles),measurement,setting,value
"CNC(=O)OC[C@H]1O[C@@H](n2cnc3c(N[C@@H]4CCOC4)ncnc32)[C@H](O)[C@@H]1O [Compound 6, (5-16[((3R)oxolan-3-yl)aminolpurin-9-yl)(3S,2R,4R,5R)-3,4dihydroxyoxolan-2yl)methoxyl-N-methylearboxamide]",Ki,A1 receptor,0.228 µM
same,agonist character at A1 AdoR,A1 adenosine receptor,true partial A1 AdoR agonist
same,antagonism of S-H interval prolongation caused by full agonist CPA,"A1 adenosine receptor; Compound 6 2 and 10 μm, atrial cycle length 300 msec, FIG. 3",antagonizes the negative dromotropic effect
same,effect on atrial monophasic action potential,A1 adenosine receptor; FIG. 1 panel B,no effect
same,effect on AV nodal conduction time (S-H interval),A1 adenosine receptor; FIG. 1 panel C,concentration-dependent and significant increase in AV nodal conduction time
same,second-degree AV block,A1 adenosine receptor; FIG. 1 panel C,without causing second-degree AV block at any concentration tested
same,EC50,"A1 adenosine receptor; guinea pig isolated perfused hearts, read-out: EC50 to prolong S-H interval (negative dromotropic effect)",2.8 ± 1.3 µM
same,selectivity: S-H interval prolongation versus increase of coronary conductance,A1 adenosine receptor; ratio of potencies,at least 10 fold
same,effect on heart rate (chronotropic),"A1 adenosine receptor; spontaneously beating hearts, FIG. 1 panel A",did not slow heart rate
same,EC50,A2A AdoR,31 ± 5.1 µM

# — US20020037872A1, “N6 heterocyclic 5' modified adenosine derivatives” (CV Therapeutics, Inc., priority 1999, published 2002)
